Among the test systems are MDA-N; BT-549 breast; SK-OV-3 ovarian; OVCAR-8 ovarian; HCT-15 colon; IGROV1 ovarian; NCI-H226 lung; MALME-3M melanoma; MDA-MB-435; HOP-92 NSCLC; UACC-257 melanoma; HOP-62 NSCLC; HS 578T breast; SNB-19 CNS; DU-145 prostate; RPMI-8226 leukemia; MCF7 breast; SK-MEL-5 melanoma; HCT-116 colon; T-47D breast.
Common to all, as to assay: NCI-60 cell line screen, 48 h

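Assay format: 96-well plates, 48-hour exposure. At the TGI there is no net growth.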 Where a SMILES comes first, the peptide text is derived from it.

Turning to `COC(=O)c1ccc(COC(=O)N2C=CCC2C(=O)O)cc1` (configuration not stated), the TGI in the test on MDA-N, with BT-549 breast, with SK-OV-3 ovarian, in the test on OVCAR-8 ovarian, in the test with HCT-15 colon and in the test on IGROV1 ovarian was above 100 µM in each case. Also, the TGI in the test on NCI-H226 lung, in the test with MALME-3M melanoma, in the test on MDA-MB-435, in the test with HOP-92 NSCLC, in the test with UACC-257 melanoma and with HOP-62 NSCLC was above 100 µM in each case. In addition, the TGI in the test with HS 578T breast, in the test with SNB-19 CNS, with DU-145 prostate, in the test with RPMI-8226 leukemia, in the test with MCF7 breast and with SK-MEL-5 melanoma was above 100 µM in each case.
Take `CNC(=O)CNC(=O)C(NC(=O)CNC(=O)C1CCCN1C(=O)C(C)NC(=O)C(NC(C)=O)C(C)C)C(C)C` (configuration not stated) (Ac-VAPGVG-NHMe; configuration not given here): the TGI with MDA-N, with SK-OV-3 ovarian, in the test with OVCAR-8 ovarian, with HCT-15 colon, in the test on HCT-116 colon and with IGROV1 ovarian was above 100 µM in each case. The TGI in the test with MALME-3M melanoma, in the test on MDA-MB-435, in the test with HOP-92 NSCLC, with UACC-257 melanoma, in the test on HOP-62 NSCLC and in the test on SNB-19 CNS was above 100 µM in each case. The TGI in the test on T-47D breast, in the test on DU-145 prostate, with RPMI-8226 leukemia and with MCF7 breast was above 100 µM each time.
As for `CN(C)CCNC1=CC(=O)c2nc3ccccc3c3ccnc1c23`, the TGI was 20.7 µM in the test on MDA-N; 21.4 µM with BT-549 breast; 29.4 µM in the test with SK-OV-3 ovarian; 37.5 µM in the test with OVCAR-8 ovarian; 20.3 µM with HCT-15 colon; 14.8 µM in the test with HCT-116 colon. The TGI with IGROV1 ovarian was found to be 14.8 µM; in the test with NCI-H226 lung, 18.8 µM; with MALME-3M melanoma, 16.2 µM; with MDA-MB-435, 20 µM; in the test on HOP-92 NSCLC, 60.9 µM; with UACC-257 melanoma, 22.6 µM. The TGI in the test with HOP-62 NSCLC was 25.6 µM; in the test with HS 578T breast, 24.5 µM; with SNB-19 CNS, 29.6 µM; in the test on DU-145 prostate, 22.4 µM; in the test on RPMI-8226 leukemia it was 55.5 µM; in the test on MCF7 breast, 16.3 µM.
Take `C/C=C1\CNC1C(=O)O` (configuration not stated): the TGI in the test on MDA-N, with BT-549 breast, in the test on SK-OV-3 ovarian, with OVCAR-8 ovarian, in the test with HCT-15 colon and with HCT-116 colon was above 100 µM in each case. Besides, the TGI in the test with IGROV1 ovarian, in the test with MALME-3M melanoma, with MDA-MB-435, with HOP-92 NSCLC, in the test on UACC-257 melanoma and in the test on HOP-62 NSCLC was above 100 µM in each case. In addition, the TGI with HS 578T breast, with SNB-19 CNS, with RPMI-8226 leukemia, in the test with MCF7 breast and in the test with SK-MEL-5 melanoma was above 100 µM in each case.
As to `O=Nc1sc(=N\O)/c(=N/O)sc1NO`, the TGI in the test with MDA-N, in the test with BT-549 breast, in the test with SK-OV-3 ovarian, in the test with OVCAR-8 ovarian, in the test on HCT-15 colon and in the test with HCT-116 colon was above 100 µM each time. The TGI with IGROV1 ovarian, with NCI-H226 lung, with MALME-3M melanoma, in the test with MDA-MB-435, in the test with HOP-92 NSCLC and in the test with UACC-257 melanoma was above 100 µM in each case. The TGI with HOP-62 NSCLC, with SNB-19 CNS, in the test with DU-145 prostate, in the test with RPMI-8226 leukemia, in the test with MCF7 breast and with SK-MEL-5 melanoma was above 100 µM throughout.
Regarding `NC(=NCCN1CCCCCCC1)NO`, the TGI with MDA-N is above 100 µM; with SK-OV-3 ovarian, above 100 µM; with OVCAR-8 ovarian it was above 100 µM; in the test with HCT-15 colon, above 100 µM; in the test on HCT-116 colon it was 26.7 µM; in the test with IGROV1 ovarian it was 92.6 µM. The TGI in the test on NCI-H226 lung, in the test with MALME-3M melanoma, with MDA-MB-435, with HOP-92 NSCLC, in the test on UACC-257 melanoma and in the test on HOP-62 NSCLC was above 100 µM each time. Further, the TGI in the test on HS 578T breast, in the test on SNB-19 CNS, with T-47D breast, in the test with DU-145 prostate, in the test on RPMI-8226 leukemia and with MCF7 breast was above 100 µM in each case. Further, the TGI in the test on SK-MEL-5 melanoma was above 100 µM.
Take `COCCN(CCOC)C(=O)COc1c2cc(C(C)(C)C)cc1Cc1cc(C(C)(C)C)cc(c1OCC(=O)N(CCOC)CCOC)Cc1cc(C(C)(C)C)cc(c1OCC(=O)N(CCOC)CCOC)Cc1cc(C(C)(C)C)cc(c1OCC(=O)N(CCOC)CCOC)Cc1cc(C(C)(C)C)cc(c1OCC(=O)N(CCOC)CCOC)C2`: the TGI in the test on MDA-N was determined as 12.1 µM; in the test on SK-OV-3 ovarian, 14.6 µM; in the test with OVCAR-8 ovarian it was 22.8 µM; in the test with HCT-15 colon, 11.8 µM; in the test on HCT-116 colon, 3.78 µM; with IGROV1 ovarian, 10.1 µM. Further, the TGI with NCI-H226 lung was found to be 11 µM; in the test on MALME-3M melanoma, 16.9 µM; in the test on MDA-MB-435 it was 10.7 µM; with UACC-257 melanoma it was 6.58 µM; in the test with HOP-62 NSCLC, 5.04 µM; in the test with SNB-19 CNS, 16.4 µM. In addition, the TGI in the test on T-47D breast came out at 19.5 µM; with DU-145 prostate, 11.1 µM; in the test on MCF7 breast, 6.42 µM; in the test on SK-MEL-5 melanoma, 2.78 µM.
For `CCOC(=O)N/N=C(\Cc1ccc([N+](=O)[O-])cc1)OCC`, the TGI in the test with MDA-N, in the test on BT-549 breast, in the test with SK-OV-3 ovarian, in the test on OVCAR-8 ovarian, with HCT-15 colon and in the test with HCT-116 colon was above 100 µM in each case. Moreover, the TGI in the test with IGROV1 ovarian, in the test on MDA-MB-435, in the test with HOP-92 NSCLC, in the test with UACC-257 melanoma, with HOP-62 NSCLC and in the test with SNB-19 CNS was above 100 µM each time. In addition, the TGI with DU-145 prostate, in the test with RPMI-8226 leukemia, with MCF7 breast and in the test on SK-MEL-5 melanoma was above 100 µM throughout.
As for `O=[N+]([O-])c1cc(-c2nnc(C34CC5CC(CC(C5)C3)C4)o2)cc([N+](=O)[O-])c1`, the TGI in the test with MDA-N, in the test on SK-OV-3 ovarian, in the test on OVCAR-8 ovarian, in the test on HCT-15 colon, with HCT-116 colon and with IGROV1 ovarian was above 100 µM in each case. Also, the TGI was above 100 µM with NCI-H226 lung; above 100 µM in the test with MALME-3M melanoma; 77 µM with MDA-MB-435; 94.6 µM with HOP-92 NSCLC; above 100 µM in the test on UACC-257 melanoma; above 100 µM with HOP-62 NSCLC. For the same compound, the TGI with HS 578T breast was above 100 µM; in the test with SNB-19 CNS, above 100 µM; with T-47D breast, above 100 µM; in the test with DU-145 prostate it was above 100 µM; with RPMI-8226 leukemia, above 100 µM; in the test with SK-MEL-5 melanoma, 44.8 µM.
As for `COC(=O)c1cc(C)ccc1C1CN=NC12Cc1cccc(C)c1C2=O` (configuration not stated), the TGI is above 100 µM in the test on MDA-N; above 100 µM with OVCAR-8 ovarian; above 100 µM in the test on HCT-15 colon; 70.5 µM with HCT-116 colon; above 100 µM in the test on IGROV1 ovarian; above 100 µM in the test with NCI-H226 lung. The TGI is 67.5 µM in the test with MALME-3M melanoma; 61.8 µM with MDA-MB-435; above 100 µM in the test with HOP-92 NSCLC; above 100 µM in the test on UACC-257 melanoma; above 100 µM in the test with HOP-62 NSCLC; above 100 µM with HS 578T breast. Further, the TGI is above 100 µM with SNB-19 CNS; 35.6 µM with T-47D breast; above 100 µM in the test with DU-145 prostate; 54.9 µM with RPMI-8226 leukemia; above 100 µM with MCF7 breast; 31.9 µM with SK-MEL-5 melanoma.
`CSc1nc2c(c(=O)[nH]1)N=C(c1ccc(Cl)cc1)CC(c1ccccc1)N2` (configuration not stated): the TGI came out at 31.4 µM in the test on MDA-N; 45.4 µM in the test with BT-549 breast; 31.4 µM in the test on OVCAR-8 ovarian; 51.4 µM with HCT-116 colon; 29.5 µM in the test with IGROV1 ovarian; 58.7 µM in the test on NCI-H226 lung. The TGI with MALME-3M melanoma is 42.8 µM; with MDA-MB-435, 38.3 µM; in the test on HOP-92 NSCLC, 38.7 µM; with UACC-257 melanoma, 34.3 µM; in the test on HOP-62 NSCLC it was 31.7 µM; with SNB-19 CNS, 29.9 µM. For the same compound, the TGI came to 42.1 µM with DU-145 prostate, 40.1 µM in the test with RPMI-8226 leukemia, 33.2 µM in the test on MCF7 breast and 26.1 µM with SK-MEL-5 melanoma.
For the compound `COC(=O)CCc1ccc2c(c1)CC1(Cc3ccccc3C1)C2`, the TGI with MDA-N, with SK-OV-3 ovarian, in the test with OVCAR-8 ovarian, with HCT-15 colon, with HCT-116 colon and in the test with IGROV1 ovarian was above 100 µM throughout. For the same compound, the TGI in the test on NCI-H226 lung, in the test on MALME-3M melanoma, in the test with MDA-MB-435, in the test on HOP-92 NSCLC, in the test with UACC-257 melanoma and in the test on HOP-62 NSCLC was above 100 µM each time. In addition, the TGI with HS 578T breast, with T-47D breast, in the test with RPMI-8226 leukemia, in the test with MCF7 breast and in the test on SK-MEL-5 melanoma was above 100 µM in each case.

For the origin of these results see PubChem BioAssay (NCI).
